Measured values from PubChem BioAssay (NCI).
Values joined by “and” are separate entries in the source; they are usually repeats but may differ in a detail not shown here. Identical values can stand only once.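 Briefly, cells in 96-well plates were exposed to five compound concentrations for 48 h, and endpoints were estimated by linear interpolation. GI50 is the concentration that inhibits growth by half. TGI: total growth inhibition.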

Experiments:
Test in all cases: growth of human tumour cells (NCI), 48 h
[1] = test system: 786-0 renal
[2] = test system: A498 renal
[3] = test system: A549 NSCLC
[4] = test system: ACHN renal
[5] = test system: BT-549 breast
[6] = test system: CAKI-1 renal
[7] = test system: CCRF-CEM leukemia
[8] = test system: COLO 205 colon
[9] = test system: DU-145 prostate
[10] = test system: EKVX NSCLC
[11] = test system: HCC-2998 colon
[12] = test system: HCT-116 colon
[13] = test system: HCT-15 colon
[14] = test system: HL-60(TB) leukemia
[15] = test system: HOP-62 NSCLC
[16] = test system: HOP-92 NSCLC
[17] = test system: HS 578T breast
[18] = test system: HT29 colon
[19] = test system: IGROV1 ovarian
[20] = test system: K-562 leukemia
[21] = test system: KM12 colon
[22] = test system: LOX IMVI melanoma
[23] = test system: M14 melanoma
[24] = test system: MALME-3M melanoma
[25] = test system: MCF7 breast
[26] = test system: MDA-MB-435
[27] = test system: MDA-MB-468 breast
[28] = test system: MOLT-4 leukemia
[29] = test system: NCI-H226 lung
[30] = test system: NCI-H23 lung
[31] = test system: NCI-H460 lung
[32] = test system: NCI-H522 lung
[33] = test system: NCI/ADR-RES ovarian
[34] = test system: OVCAR-3 ovarian
[35] = test system: OVCAR-4 ovarian
[36] = test system: OVCAR-5 ovarian
[37] = test system: OVCAR-8 ovarian
[38] = test system: PC-3 prostate
[39] = test system: RPMI-8226 leukemia
[40] = test system: RXF 393 renal
[41] = test system: SF-268 CNS
[42] = test system: SF-295 CNS
[43] = test system: SF-539 CNS
[44] = test system: SK-MEL-28 melanoma
[45] = test system: SK-MEL-5 melanoma
[46] = test system: SK-OV-3 ovarian
[47] = test system: SN12C renal
[48] = test system: SNB-19 CNS
[49] = test system: SR leukemia
[50] = test system: SW-620 colon
[51] = test system: T-47D breast
[52] = test system: TK-10 renal
[53] = test system: U251 CNS
[54] = test system: UACC-257 melanoma
[55] = test system: UACC-62 melanoma

## O=C(Nc1nc2ccc([N+](=O)[O-])cc2s1)Nc1ccccc1F
[1]
  GI50: 17.7 µM
  TGI: > 100 µM
[2]
  GI50: 4.88 µM
  TGI: 36.7 µM
[3]
  GI50: 7.4 µM
  TGI: 28.5 µM
[4]
  GI50: 8.13 µM
  TGI: 95.7 µM
[5]
  GI50: 11.9 µM
  TGI: 46.5 µM
[6]
  GI50: 5.32 µM
  TGI: 73.2 µM
[7]
  GI50: 5.42 µM
  TGI: 47.9 µM
[8]
  GI50: 15.1 µM
  TGI: 30.4 µM
[9]
  GI50: 7.11 µM
  TGI: > 100 µM
[10]
  GI50: 4.37 µM
  TGI: 55.5 µM
[11]
  GI50: 7.58 µM
  TGI: 34.1 µM
[12]
  GI50: 9.97 µM
  TGI: 39.8 µM
[13]
  GI50: 4.93 µM
  TGI: 33.9 µM
[14]
  GI50: 4.31 µM
  TGI: 22 µM
[15]
  GI50: 17.2 µM
  TGI: 56.3 µM
[16]
  GI50: 2.83 µM
  TGI: 8.28 µM
[17]
  GI50: 5.89 µM
  TGI: 59 µM
[18]
  GI50: 23.6 µM
  TGI: > 100 µM
[19]
  GI50: 4.57 µM
  TGI: > 100 µM
[20]
  GI50: 4.99 µM
  TGI: 25 µM
[21]
  GI50: 5.33 µM
  TGI: 52.8 µM
[22]
  GI50: 10.7 µM
  TGI: 58.8 µM
[23]
  GI50: 19.1 µM
  TGI: > 100 µM
[24]
  GI50: 4.17 µM
  TGI: 30.9 µM
[25]
  GI50: 5.68 µM
  TGI: 35.3 µM
[26]
  GI50: 5.46 µM
  TGI: > 100 µM
[27]
  GI50: 3.2 µM
  TGI: 19.2 µM
[28]
  GI50: 3.77 µM
  TGI: 15.5 µM
[29]
  GI50: 13.4 µM
  TGI: > 100 µM
[30]
  GI50: 3.6 µM
  TGI: 21.6 µM
[31]
  GI50: 4.66 µM
  TGI: 26.5 µM
[32]
  GI50: 3.49 µM
  TGI: 22.6 µM
[33]
  GI50: 7.98 µM
  TGI: 32.4 µM
[34]
  GI50: 3.99 µM
  TGI: 46.6 µM
[35]
  GI50: 5.21 µM
  TGI: > 100 µM
[36]
  GI50: 22 µM
  TGI: 80.8 µM
[37]
  GI50: 15.8 µM
  TGI: 50.4 µM
[38]
  GI50: 6.83 µM
  TGI: 51 µM
[39]
  GI50: 3.45 µM
  TGI: 16.5 µM
[40]
  GI50: 13.3 µM
  TGI: 47.3 µM
[41]
  GI50: 8.41 µM
  TGI: > 100 µM
[42]
  GI50: 11.4 µM
  TGI: 32.1 µM
[43]
  GI50: 8.33 µM
  TGI: 26.9 µM
[44]
  GI50: 5.79 µM
  TGI: 83.8 µM
[45]
  GI50: 2.64 µM
  TGI: 7.35 µM
[46]
  GI50: 5.9 µM
  TGI: 46.1 µM
[47]
  GI50: 4.65 µM
  TGI: 62.3 µM
[48]
  GI50: 6.35 µM
  TGI: > 100 µM
[49]
  GI50: 3.31 µM
  TGI: 17.4 µM
[50]
  GI50: 12.2 µM
  TGI: > 100 µM
[51]
  GI50: 3.06 µM
  TGI: 22.7 µM
[52]
  GI50: 8.78 µM
  TGI: 83 µM
[53]
  GI50: 7.41 µM
  TGI: 35.7 µM
[54]
  GI50: 6.08 µM
  TGI: 36.9 µM
[55]
  GI50: 3.77 µM
  TGI: > 100 µM

## CCC(=O)OCN1C(=O)C=CC1=O
[27]
  GI50: 14.1 µM
  TGI: 32.4 µM

## COc1ccc(/C=C/C(=O)/C=C(/C=C/c2ccc(OC)c(OC)c2OC)OB(F)F)c(OC)c1OC
[27]
  GI50: 2.57 µM
  TGI: 9.65 µM

## O=S1(=O)C=C(c2ccccc2)C(c2ccccc2)=C1
[27]
  GI50: 1.14 µM
  TGI: 2.46 µM

## C=CC(=O)Nc1cccc(Nc2nc(Nc3ccc(N4CCN(C(C)=O)CC4)cc3OC)ncc2C(F)(F)F)c1
[27]
  GI50: 0.288 µM and 0.266 µM
  TGI: 1.98 µM and 1.62 µM

## CN1CCN(Cc2ccc(NC(=O)c3cncc(C#Cc4ncc5ccccn45)c3)cc2C(F)(F)F)CC1
[27]
  GI50: 2.78 µM
  TGI: 7.9 µM

## CC(=O)Nc1nc(C)c(-c2cc3c(c(S(C)(=O)=O)c2)C(=O)N([C@@H](C)C2CC2)C3)s1
[27]
  GI50: 31.6 µM
  TGI: > 100 µM

## COc1ccc(-c2cc3c(N)ncnc3o2)cc1
[27]
  GI50: > 25 µM
  TGI: > 25 µM

## O=C1/C(=C/c2cccc(F)c2)CN(C(=O)C(Cl)Cl)C/C1=C\c1cccc(F)c1
[27]
  GI50: 0.207 µM
  TGI: 0.529 µM

## COc1ccc2c(c1)NC(=O)CN2c1nc(C)nc2ccccc12
[27]
  GI50: 0.000415 µM

## CN(C)CCNC(=O)c1ccc(-c2nc3ccc4[nH]ncc4c3c3c2COCC3)cc1
[27]
  GI50: 0.169 µM
  TGI: 0.36 µM

## CN1CCN(Cc2ccc(NC(=O)c3[nH]ncc3Nc3cc(OC4CCCC4)ncn3)cc2)CC1
[27]
  GI50: 1.98 µM
  TGI: 4.77 µM

## CCC(=O)Oc1ccc(/C=N/NC(N)=S)nc1
[27]
  GI50: 1.97 µM
  TGI: 7.22 µM

## CCCCCCCCCCCCCCCC(N)c1ccccc1 (configuration not stated)
[27]
  GI50: 1.58 µM
  TGI: 3.14 µM

## NS(=O)(=O)c1ccc(N=Nc2c(=O)[nH]c3ccc4[nH]cccc4c23)cc1
[27]
  GI50: 0.0733 µM
  TGI: 0.257 µM
